Like-named read-outs stand apart in the source and are kept apart here. Starred links: 1 amine or outer side, 2 acyl side, 3 side chain; linkers in the order of their positions; H or OH if unused. Positions of bridges follow the written chain, without caps; N, C: chain ends. Non-standard residues stand in square brackets, D forms with d. Residues, ends and D or L forms follow the SMILES beside them. Chains are numbered I, II in the order given. No end group written: not given here. ξ: configuration not given here. *: point of attachment. Succinimide(1-C2H4CO,3-yl) = O=C1CC([*:1])C(=O)N1CCC(=O)[*:2]; Biotin = O=C1N[C@H]2[C@H](CS[C@H]2CCCCC(=O)*)N1; X2 = O=C1NC2CS[C@@H](CCCCC(=O)*)C2N1; X1 = O=C1NC2CSC(CCCCC(=O)*)C2N1; ξK = NCCCCC(N)C(=O)O; ξC = NC(CS)C(=O)O; ξS = NC(CO)C(=O)O; tBu = CC(C)(C)*
Key:
MSSA [1] = tested on: MSSA
MSSA [2] = assay: Minimum bactericidal concentration (MBC) / bactericidal activity against MSSA; assay type: cell-based, S. aureus; settings: for MBC (μM) (MSSA): 14 h
red blood cell [3] = tested on: red blood cell
red blood cell [4] = assay: Hemolysis (H50); settings: Table 3
in vitro = settings: mouse, serum

| Compound | MIC (μM) (MSSA) (MSSA [1]) [µM] | MBC (μM) (MSSA) (MSSA [2]) [µM] | H50 (red blood cell [3]) [µM] | other results |
| --- | --- | --- | --- | --- |
| N=C(N)NCCC[C@H](NC(=O)[C@H](CCCNC(=N)N)NC(=O)[C@@H](CCCCN)NC(=O)[C@@H](CCCCN)NC(=O)CNC(=O)[C@H](CO)NC(=O)[C@@H](N)CS)C(=O)N[C@@H](Cc1c[nH]cn1)C(=O)N[C@@H](Cc1c[nH]cn1)C(=O)N[C@H](CCCNC(=N)N)C(=O)N[C@H](CCCNC(=N)N)C(=O)N[C@H](CCCCN)C(=O)N[C@H](CCCCN)C(=O)N[C@@H](CCCNC(=N)N)C(=O)N[C@H](CCCNC(=N)N)C(=O)N[C@@H](Cc1c[nH]cn1)C(=O)N[C@@H](Cc1c[nH]cn1)C(=O)N[C@H](CCCNC(=N)N)C(=O)N[C@H](CCCNC(=N)N)C(=O)N[C@@H](CCCCN)C(=O)O [D1, CSGkkRRHHrrkkRrHHrrK] (H-CSG[dK][dK]RRHH[dR][dR][dK][dK]R[dR]HH[dR][dR]K-OH; N-terminus and C-terminus assumed) | <50 |  |  |  |
| N=C(N)NCCC[C@H](NC(=O)CNC(=O)[C@H](CO)NC(=O)[C@@H](N)CS)C(=O)N[C@H](CCCNC(=N)N)C(=O)N[C@H](CCCCN)C(=O)N[C@H](CCCNC(=N)N)C(=O)N1CCC[C@H]1C(=O)N[C@H](CCCNC(=N)N)C(=O)N[C@H](CCCNC(=N)N)C(=O)N[C@H](CCCCN)C(=O)N[C@H](CCCNC(=N)N)C(=O)N1CCC[C@H]1C(=O)N[C@@H](CCCNC(=N)N)C(=O)N[C@H](CCCNC(=N)N)C(=O)N[C@H](CCCCN)C(=O)N[C@@H](CCCNC(=N)N)C(=O)N1CCC[C@H]1C(=O)N[C@@H](CCCNC(=N)N)C(=O)N[C@H](CCCNC(=N)N)C(=O)O [D2, CSGRrkrPrrkrPRrkRPRr] (H-CSGR[dR][dK][dR]P[dR][dR][dK][dR]PR[dR][dK]RPR[dR]-OH; N-terminus and C-terminus assumed) | <50 |  |  |  |
| I: Ac-[dR]W[dR][dR]H[dK]H[dF][dK][dR]PH[dR][dK]H[dK][dR]GSC-NH2 / II: Ac-[dR]W[dR][dR]H[dK]H[dF][dK][dR]PH[dR][dK]H[dK][dR]GSC-NH2 / III: [ξK]G[ξS][ξK][ξS]G[ξK](X2)G[ξC](tBu)-NH2 (linker I:20-III:1, II:20-III:N via Succinimide(1-C2H4CO,3-yl)) [Ly-Ly-Sc0] | 12.5 | 12.5 | >500 | MIC (μM) MRSA (USA300) (MRSA): 6.25 µM |
| I: CSGEMWAIMPPIIKPDNKGH-NH2 / II: CSGR[dR][dK][dR]P[dR][dR][dK][dR]PR[dR][dK]RPR[dR]-NH2 / III: KGSKSGK(Biotin)GC(tBu)-NH2 (linker I:1-III:1, II:1-III:N via Succinimide(1-C2H4CO,3-yl)) [D2-88-SC0] |  |  |  | H50 (red blood cell [4]): >500 µM |
| I: CSGR[dR][dK][dR]P[dR][dR][dK][dR]PR[dR][dK]RPR[dR] / II: CSGR[dR][dK][dR]P[dR][dR][dK][dR]PR[dR][dK]RPR[dR] / III: [ξK]G[ξS][ξK][ξS]G[ξK](X2)G[ξC](tBu)-NH2 (linker I:1-III:1, II:1-III:N via Succinimide(1-C2H4CO,3-yl)) [D2-D2-Sc0, CSGRrkrPrrkrPRrkRPRr-Sc0-CSGRrkrPrrkrPRrkRPRr] | 5 | 5 | >500 |  |
| I: CSG[dK][dK]RRHH[dR][dR][dK][dK]R[dR]HH[dR][dR]K / II: CSG[dK][dK]RRHH[dR][dR][dK][dK]R[dR]HH[dR][dR]K / III: [ξK]G[ξS][ξK][ξS]G[ξK](X2)G[ξC](tBu)-NH2 (linker I:1-III:1, II:1-III:N via Succinimide(1-C2H4CO,3-yl)) [D1-D1-Sc0, CSGkkRRHHrrkkRrHHrrK-Sc0-CSGkkRRHHrrkkRrHHrrK] | 10 | 5 | >500 |  |
| I: D[dR]IFH[dK]MQH[dK]PY[dK]I[dK][dK][dR]GSGGGK[ξK](X1)-NH2 / II: [dR]W[dR][dR]H[dK]HF[dK][dR]PH[dR][dK]H[dK][dR]GSG (amide I:23-II:C) [Synbody (4)] |  |  |  | half-life (in vitro): ~2.17 h; MIC, MRSA (n = 2) (MRSA): 3.3 µM; MIC, MSSA (n = 3) (MSSA [1]): 2.2 µM; bactericidal activity against MSSA (in words) (MSSA [2]): some bactericidal activity against MSSA; H50 = concentration that causes 50% hemolysis (red blood cell [3]): >200 µM |

Reference: US9757472B2, “Proteas stabilized antibacterial peptides for S. aureus” (Arizona Board of Regents on Behalf of Arizona State …, priority 2014, dated 2017)
